Measurements reported in patent US20220187282A1, “CARDIOMYOCYTE PROLIFERATION” (The Council of the Queensland Institute of Medical Research, priority 2019, published 2022).
Like-named read-outs stand apart in the source and are kept apart here.

Tests used:
Assay type in all cases: biochemical
kinases [1] = target: kinases (Homo sapiens, UniProt Q9UEW8); details: STK39 (STLK3) FRET-Lantha SP; Test Conc(μM) 1
kinases [2] = target: kinases (Homo sapiens, UniProt P54646)
kinases [3] = target: kinases (Homo sapiens, UniProt O75582); details: RPS6KA5 (MSK1) FRET-Z-Lyte SP; ATP Conc(μM):Test Conc(μM) 1:50
kinases [4] = target: kinases (Homo sapiens, UniProt O00311); details: CDC7/DBF4 FRET-Lantha SP; Test Conc(μM) 1
kinases [5] = target: kinases (Homo sapiens, UniProt Q9BYP7); details: WNK3 FRET-Lantha SP; Test Conc(μM) 1
kinases [6] = target: kinases (Homo sapiens, UniProt P07949); details: RET Hu Phos FRET-Z-Lyte SP; Test Conc(μM):ATP Conc(μM) 1:10
kinases [7] = target: kinases (Homo sapiens, UniProt Q13153); details: PAK1 FRET-Z-Lyte SP; Test Conc(μM):ATP Conc(μM) 1:50
kinases [8] = target: kinases (Homo sapiens, UniProt Q9BUB5); details: MKNK1 (MNK1) *Mn* Z-Lyte SP; Test Conc(μM):ATP Conc(μM) 1:100
kinases [9] = target: kinases (Homo sapiens, UniProt P36897); details: TGFBR1 (ALK5) FRET-Lantha SP; Test Conc(μM) 1
kinases [10] = target: kinases (Homo sapiens, UniProt Q00537); details: CDK17/cyclin Y FRET-Z-Lyte SP; Test Conc(μM):ATP Conc(μM) 1:50
kinases [11] = target: kinases (Homo sapiens, UniProt P48730); details: CSNK1D (CK1 delta) Z-Lyte SP; Test Conc(μM):ATP Conc(μM) 1:5
kinases [12] = target: kinases (Homo sapiens, UniProt Q96GD4); details: AURKB (Aurora B) Z-Lyte SP; Test Conc(μM):ATP Conc(μM) 1:75
kinases [13] = target: kinases (Homo sapiens, UniProt Q15759); details: MAPK11 (p38 beta) Z-Lyte SP; Test Conc(μM):ATP Conc(μM) 1:50
kinases [14] = target: kinases (Homo sapiens, UniProt P78527); details: DNA-PK FRET-Z-Lyte SP; Test Conc(μM):ATP Conc(μM) 1:25
kinases [15] = target: kinases (Homo sapiens, UniProt O75385); details: ULK1 FRET-Lantha SP; Test Conc(μM) 1
kinases [16] = target: kinases (Homo sapiens, UniProt O14757); details: CHEK1 (CHK1) FRET-Z-Lyte SP; Test Conc(μM):ATP Conc(μM) 1:50
kinases [17] = target: kinases (Homo sapiens, UniProt Q08345); details: DDR1 FRET-Lantha SP; Test Conc(μM) 1
kinases [18] = target: kinases (Homo sapiens, UniProt P78362); details: SRPK2 FRET-Z-Lyte SP; Test Conc(μM):ATP Conc(μM) 1:25
kinases [19] = target: kinases (Homo sapiens, UniProt O75914); details: PAK3 FRET-Z-Lyte SP; Test Conc(μM):ATP Conc(μM) 1:100
kinases [20] = target: kinases (Homo sapiens, UniProt Q13705); details: ACVR2B FRET-Lantha SP; Test Conc(μM) 1
kinases [21] = target: kinases (Homo sapiens, UniProt Q02763); details: TEK (Tie2) *Mn* FRET-Z-Lyte SP; Test Conc(μM):ATP Conc(μM) 1:10
kinases [22] = target: kinases (Homo sapiens, UniProt O94921); details: CDK14(PFTK1)/cyclinY Lantha SP; Test Conc(μM) 1
kinases [23] = target: kinases (Homo sapiens, UniProt P04626); details: ERBB2 (HER2) *Mn* Z-Lyte SP; Test Conc(μM):ATP Conc(μM) 1:10
kinases [24] = target: kinases (Homo sapiens, UniProt Q15208); details: STK38 FRET-Lantha SP; Test Conc(μM) 1
kinases [25] = target: kinases (Homo sapiens, UniProt P80192); details: MAP3K9 (MLK1) FRET-Z-Lyte SP; Test Conc(μM):ATP Conc(μM) 1:75
kinases [26] = target: kinases (Homo sapiens, UniProt Q8TDX7); details: NEK7 FRET-Z-Lyte SP; Test Conc(μM):ATP Conc(μM) 1:50
kinases [27] = target: kinases (Homo sapiens, UniProt Q9Y243); details: AKT3 (PKB gamma) Z-Lyte SP; Test Conc(μM):ATP Conc(μM) 1:100
kinases [28] = target: kinases (Homo sapiens, UniProt Q16288); details: NTRK3 (TRKC) FRET-Z-Lyte SP; Test Conc(μM):ATP Conc(μM) 1:50
[29] = AMPK (A2/B2/G1) FRET-Lantha SP, Test Conc(μM) 1
[30] = AMPK (A2/B2/G2) FRET-Lantha SP, Test Conc(μM) 1
[31] = AMPK A2/B1/G1 FRET-Z-Lyte SP, Test Conc(μM):ATP Conc(μM) 1:150
[32] = AMPK A2/B1/G2 FRET-Z-Lyte SP, Test Conc(μM):ATP Conc(μM) 1:10
[33] = AMPK A2/B1/G3 FRET-Z-Lyte SP, Test Conc(μM):ATP Conc(μM) 1:25
[34] = AMPK A2/B2/G3 FRET-Z-Lyte SP, Test Conc(μM):ATP Conc(μM) 1:50

Sequence of kinases (Homo sapiens, UniProt P54646) (P54646 whole entry): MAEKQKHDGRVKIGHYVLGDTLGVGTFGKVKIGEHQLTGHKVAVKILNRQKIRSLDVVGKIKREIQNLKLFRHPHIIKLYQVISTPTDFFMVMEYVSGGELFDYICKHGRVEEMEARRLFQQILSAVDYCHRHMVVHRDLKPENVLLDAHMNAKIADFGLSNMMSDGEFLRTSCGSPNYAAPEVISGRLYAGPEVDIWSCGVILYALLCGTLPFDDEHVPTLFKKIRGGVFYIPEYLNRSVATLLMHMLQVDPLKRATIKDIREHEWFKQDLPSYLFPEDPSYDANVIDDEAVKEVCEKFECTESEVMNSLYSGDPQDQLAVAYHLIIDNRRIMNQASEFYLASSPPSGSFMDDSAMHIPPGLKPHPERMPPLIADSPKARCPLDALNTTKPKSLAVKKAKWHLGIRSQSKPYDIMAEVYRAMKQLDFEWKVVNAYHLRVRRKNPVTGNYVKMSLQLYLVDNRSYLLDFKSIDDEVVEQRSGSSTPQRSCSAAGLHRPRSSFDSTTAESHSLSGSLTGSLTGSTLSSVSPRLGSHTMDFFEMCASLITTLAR
Sequence of kinases (Homo sapiens, UniProt Q16288) (Q16288 32-839): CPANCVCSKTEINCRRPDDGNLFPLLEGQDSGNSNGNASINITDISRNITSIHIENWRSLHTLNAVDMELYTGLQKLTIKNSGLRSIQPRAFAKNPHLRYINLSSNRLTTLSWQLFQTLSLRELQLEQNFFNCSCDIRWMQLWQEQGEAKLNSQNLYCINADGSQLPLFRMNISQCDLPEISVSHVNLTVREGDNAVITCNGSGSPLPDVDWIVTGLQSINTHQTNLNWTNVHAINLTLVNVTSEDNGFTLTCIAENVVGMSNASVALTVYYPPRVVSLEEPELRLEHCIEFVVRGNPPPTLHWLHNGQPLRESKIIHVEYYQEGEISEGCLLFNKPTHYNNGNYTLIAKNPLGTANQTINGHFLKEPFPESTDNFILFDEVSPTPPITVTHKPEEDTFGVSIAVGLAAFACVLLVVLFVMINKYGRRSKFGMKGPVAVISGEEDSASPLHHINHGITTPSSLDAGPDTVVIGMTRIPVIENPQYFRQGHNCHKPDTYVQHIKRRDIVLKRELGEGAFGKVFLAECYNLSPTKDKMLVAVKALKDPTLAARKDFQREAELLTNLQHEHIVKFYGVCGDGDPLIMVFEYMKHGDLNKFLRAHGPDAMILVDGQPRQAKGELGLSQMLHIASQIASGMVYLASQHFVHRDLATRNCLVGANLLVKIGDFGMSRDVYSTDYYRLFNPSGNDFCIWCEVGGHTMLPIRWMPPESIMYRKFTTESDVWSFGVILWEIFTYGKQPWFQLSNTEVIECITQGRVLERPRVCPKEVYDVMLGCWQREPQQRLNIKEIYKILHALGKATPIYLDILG
Sequence of kinases (Homo sapiens, UniProt O75582) (O75582 whole entry): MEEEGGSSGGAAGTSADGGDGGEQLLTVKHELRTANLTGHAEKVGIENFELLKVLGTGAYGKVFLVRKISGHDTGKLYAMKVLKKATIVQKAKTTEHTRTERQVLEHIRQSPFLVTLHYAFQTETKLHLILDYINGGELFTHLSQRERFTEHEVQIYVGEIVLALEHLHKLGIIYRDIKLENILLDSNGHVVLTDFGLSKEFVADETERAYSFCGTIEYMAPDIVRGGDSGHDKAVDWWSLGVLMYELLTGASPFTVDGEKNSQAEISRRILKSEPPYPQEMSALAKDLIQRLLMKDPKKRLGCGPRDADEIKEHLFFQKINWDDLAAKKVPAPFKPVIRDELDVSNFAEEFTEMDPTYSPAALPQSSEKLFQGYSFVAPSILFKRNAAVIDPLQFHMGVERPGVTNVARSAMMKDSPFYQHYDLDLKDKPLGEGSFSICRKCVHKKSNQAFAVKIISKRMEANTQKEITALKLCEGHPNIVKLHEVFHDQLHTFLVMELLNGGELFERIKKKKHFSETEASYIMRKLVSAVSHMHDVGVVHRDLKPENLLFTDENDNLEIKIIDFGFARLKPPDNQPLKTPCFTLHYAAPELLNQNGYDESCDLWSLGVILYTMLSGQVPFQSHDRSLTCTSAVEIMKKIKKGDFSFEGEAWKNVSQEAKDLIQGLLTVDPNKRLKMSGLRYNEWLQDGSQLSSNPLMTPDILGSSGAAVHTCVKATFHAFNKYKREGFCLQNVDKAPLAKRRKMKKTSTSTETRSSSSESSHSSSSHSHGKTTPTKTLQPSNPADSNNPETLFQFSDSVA
Sequence of kinases (Homo sapiens, UniProt P36897) (P36897 34-503): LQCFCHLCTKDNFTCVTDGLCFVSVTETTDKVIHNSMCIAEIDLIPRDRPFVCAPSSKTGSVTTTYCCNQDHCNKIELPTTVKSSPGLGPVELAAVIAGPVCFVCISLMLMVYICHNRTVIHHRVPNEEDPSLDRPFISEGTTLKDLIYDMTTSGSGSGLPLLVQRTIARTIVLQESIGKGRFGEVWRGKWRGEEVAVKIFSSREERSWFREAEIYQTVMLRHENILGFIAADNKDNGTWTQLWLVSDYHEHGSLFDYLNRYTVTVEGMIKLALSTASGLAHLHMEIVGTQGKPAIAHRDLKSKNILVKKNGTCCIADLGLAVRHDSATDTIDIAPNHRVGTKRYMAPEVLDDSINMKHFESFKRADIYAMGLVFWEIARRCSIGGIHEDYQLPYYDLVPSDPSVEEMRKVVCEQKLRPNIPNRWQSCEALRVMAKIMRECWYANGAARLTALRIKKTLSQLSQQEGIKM
Sequence of kinases (Homo sapiens, UniProt Q00537) (Q00537 whole entry): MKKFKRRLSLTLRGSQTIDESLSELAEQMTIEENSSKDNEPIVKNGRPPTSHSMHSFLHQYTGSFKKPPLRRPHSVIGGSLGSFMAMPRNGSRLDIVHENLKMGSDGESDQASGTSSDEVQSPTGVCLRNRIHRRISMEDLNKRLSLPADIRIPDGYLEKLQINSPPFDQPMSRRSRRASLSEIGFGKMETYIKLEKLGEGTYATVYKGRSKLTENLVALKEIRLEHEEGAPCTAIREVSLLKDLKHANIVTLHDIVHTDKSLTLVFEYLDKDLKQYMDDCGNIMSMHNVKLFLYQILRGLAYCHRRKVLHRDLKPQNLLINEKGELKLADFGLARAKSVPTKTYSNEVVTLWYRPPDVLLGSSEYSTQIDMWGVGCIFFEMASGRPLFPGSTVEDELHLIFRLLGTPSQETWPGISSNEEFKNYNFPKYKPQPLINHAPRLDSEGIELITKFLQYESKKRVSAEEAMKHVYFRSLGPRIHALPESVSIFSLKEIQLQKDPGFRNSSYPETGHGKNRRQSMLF
Sequence of kinases (Homo sapiens, UniProt Q15759) (Q15759 whole entry): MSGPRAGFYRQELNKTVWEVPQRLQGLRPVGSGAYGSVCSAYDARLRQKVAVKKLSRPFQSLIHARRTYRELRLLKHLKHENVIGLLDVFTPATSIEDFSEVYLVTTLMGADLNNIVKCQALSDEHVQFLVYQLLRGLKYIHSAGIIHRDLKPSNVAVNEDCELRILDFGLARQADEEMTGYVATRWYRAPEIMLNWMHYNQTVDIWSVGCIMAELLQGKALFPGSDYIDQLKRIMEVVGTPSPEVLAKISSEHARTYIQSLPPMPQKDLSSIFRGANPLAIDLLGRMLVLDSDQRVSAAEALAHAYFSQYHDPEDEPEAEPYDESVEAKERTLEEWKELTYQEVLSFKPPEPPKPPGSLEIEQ
Sequence of kinases (Homo sapiens, UniProt Q15208) (Q15208 whole entry): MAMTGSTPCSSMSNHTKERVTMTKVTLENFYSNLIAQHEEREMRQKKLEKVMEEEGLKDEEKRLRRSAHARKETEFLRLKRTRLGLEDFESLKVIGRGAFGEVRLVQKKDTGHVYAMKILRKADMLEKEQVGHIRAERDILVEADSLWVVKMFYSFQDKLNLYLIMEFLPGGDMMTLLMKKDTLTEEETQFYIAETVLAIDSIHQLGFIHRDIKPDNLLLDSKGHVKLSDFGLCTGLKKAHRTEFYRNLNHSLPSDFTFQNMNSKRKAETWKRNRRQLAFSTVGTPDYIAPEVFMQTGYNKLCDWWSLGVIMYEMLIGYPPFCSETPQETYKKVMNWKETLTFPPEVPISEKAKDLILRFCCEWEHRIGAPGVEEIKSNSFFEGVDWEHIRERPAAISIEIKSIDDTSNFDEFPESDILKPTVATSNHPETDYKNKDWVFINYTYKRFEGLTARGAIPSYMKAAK
Sequence of kinases (Homo sapiens, UniProt P78362) (P78362 whole entry): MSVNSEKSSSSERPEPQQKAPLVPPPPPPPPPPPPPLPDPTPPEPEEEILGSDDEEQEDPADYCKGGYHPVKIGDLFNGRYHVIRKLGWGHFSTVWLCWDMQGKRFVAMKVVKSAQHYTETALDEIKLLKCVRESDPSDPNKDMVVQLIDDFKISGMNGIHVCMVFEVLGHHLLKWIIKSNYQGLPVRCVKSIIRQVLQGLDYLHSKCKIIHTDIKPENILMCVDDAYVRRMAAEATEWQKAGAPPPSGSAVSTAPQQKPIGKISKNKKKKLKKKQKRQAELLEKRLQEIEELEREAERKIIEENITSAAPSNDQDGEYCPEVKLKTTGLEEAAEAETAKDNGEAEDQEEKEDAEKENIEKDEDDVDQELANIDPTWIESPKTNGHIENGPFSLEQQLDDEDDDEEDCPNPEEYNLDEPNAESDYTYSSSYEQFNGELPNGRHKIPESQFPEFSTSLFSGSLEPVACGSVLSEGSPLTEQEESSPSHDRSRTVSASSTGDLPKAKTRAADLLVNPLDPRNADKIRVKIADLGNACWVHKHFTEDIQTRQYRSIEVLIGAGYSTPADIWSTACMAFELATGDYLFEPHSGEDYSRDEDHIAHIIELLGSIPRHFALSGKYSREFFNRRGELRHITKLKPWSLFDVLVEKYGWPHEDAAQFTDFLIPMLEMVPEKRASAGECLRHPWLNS
Sequence of kinases (Homo sapiens, UniProt Q8TDX7) (Q8TDX7 whole entry): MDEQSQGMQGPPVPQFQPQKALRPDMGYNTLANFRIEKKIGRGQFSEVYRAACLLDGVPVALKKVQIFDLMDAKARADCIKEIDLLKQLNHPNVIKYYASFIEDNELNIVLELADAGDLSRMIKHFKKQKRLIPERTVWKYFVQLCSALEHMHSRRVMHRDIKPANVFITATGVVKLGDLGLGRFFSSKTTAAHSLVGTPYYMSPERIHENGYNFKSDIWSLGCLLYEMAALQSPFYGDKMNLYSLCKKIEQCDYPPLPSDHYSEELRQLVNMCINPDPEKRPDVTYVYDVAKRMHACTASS

SMILES	Mean Inhib (%) (kinases [1])	Mean Inhib (%) (kinases [2]; [29])	Mean Inhib (%) (kinases [2]; [30])	Mean Inhib (%) (kinases [2]; [31])	Mean Inhib (%) (kinases [2]; [32])	Mean Inhib (%) (kinases [2]; [33])	Mean Inhib (%) (kinases [2]; [34])	Mean Inhib (%) (kinases [3])	Mean Inhib (%) (kinases [4])	Mean Inhib (%) (kinases [5])	Mean Inhib (%) (kinases [6])	Mean Inhib (%) (kinases [7])	Mean Inhib (%) (kinases [8])	Mean Inhib (%) (kinases [9])	Mean Inhib (%) (kinases [10])	Mean Inhib (%) (kinases [11])	Mean Inhib (%) (kinases [12])	Mean Inhib (%) (kinases [13])	Mean Inhib (%) (kinases [14])	Mean Inhib (%) (kinases [15])	other results
Cc1ccc(NC(=O)c2ccnc(N3CCOCC3)c2)cc1Nc1ccnc(N2CC(C)OC(C)C2)n1 (stereo not drawn) [compound 3]	6.0	−0.8	−1.1	−3.5	11.4	7.8	3.8	1.6	4.9	5.3	22.8	−1.9	5.3	5.3	0.9	1.2	4.9	47.6	13.7	1.6	Mean Inhib (%) (kinases [16]): 6.3%; Mean Inhib (%) (kinases [17]): 82.4%; Mean Inhib (%) (kinases [18]): −1.9%; Mean Inhib (%) (kinases [19]): −0.3%; Mean Inhib (%) (kinases [20]): −2.1%; Mean Inhib (%) (kinases [21]): −4.4%; Mean Inhib (%) (kinases [22]): 3.5%; Mean Inhib (%) (kinases [23]): 2.7%; Mean Inhib (%) (kinases [24]): −9.2%; Mean Inhib (%) (kinases [25]): 1.3%; Mean Inhib (%) (kinases [26]): 7.4%; Mean Inhib (%) (kinases [27]): 5.8%; Mean Inhib (%) (kinases [28]): 3.5%
Cc1cc(Oc2ccnc(Nc3ccc(S(N)(=O)=O)cc3)c2)c(-c2ccccn2)nc1C [compound 65]	5.1	−1.2	1.4	2.9	−6.7	−5.2	−4.3	10.0	0.9	−2.5	31.0	14.1	1.5	99.6	9.6	1.9	2.7	21.2	13.9	0.1	Mean Inhib (%) (kinases [16]): 14.8%; Mean Inhib (%) (kinases [17]): 1.7%; Mean Inhib (%) (kinases [18]): 1.9%; Mean Inhib (%) (kinases [19]): 23.3%; Mean Inhib (%) (kinases [20]): 95.6%; Mean Inhib (%) (kinases [21]): −7.9%; Mean Inhib (%) (kinases [22]): 11.7%; Mean Inhib (%) (kinases [23]): 10.1%; Mean Inhib (%) (kinases [24]): 3.1%; Mean Inhib (%) (kinases [25]): 3.4%; Mean Inhib (%) (kinases [26]): 6.9%; Mean Inhib (%) (kinases [27]): 4.2%; Mean Inhib (%) (kinases [28]): 2.7%
